Target: T1, BepE-BID1 (Bartonella henselae, UniProt A0A0R4J6H0)
T1 construct: gene BH13420; first BID domain (BID1) of BepE, His-tagged, expressed in E. coli, Ni-NTA
Experiment: metasurface plasmon resonance (SPR), immobilised protein
Assay type: binding
Conditions: lipid presented in liposomes (PC:POPA, 90% PC and 10% POPA); HBS-ET buffer

T1 sequence (A0A0R4J6H0 entry or part of it): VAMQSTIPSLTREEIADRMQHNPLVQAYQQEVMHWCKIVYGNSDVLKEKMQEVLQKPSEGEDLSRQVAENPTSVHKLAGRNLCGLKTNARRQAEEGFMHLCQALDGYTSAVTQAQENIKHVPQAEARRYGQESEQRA

CCCCCCCC/C=C\CCCCCCCC(=O)O[C@H](COC(=O)CCCCCCCCCCCCCCC)COP(=O)(O)O [POPA]
Kd: ~349 nM
